Assay results from article PMC11721293 (JCI Insight, 2025).

Assays:
[1] = tested on: VSV-SARS-CoV-2-S pseudovirus; test: microbe, parasite or virus in culture; format: cell-based; conditions: for EC50: read-out: EC50
Huh7 cells = conditions: initial screening
HEK293A2T2 cells = conditions: initial screening
SARS-CoV-2 = format: cell-based
SARS-CoV-2-nLUC = test: microbe, parasite or virus in culture; format: cell-based; conditions: VeroE6; 15 μM GGTI; 24 h

Structure (SMILES) | Max % [1] | EC50 [1] | also measured
CN(C)CC[C@@H](c1ccc(Br)cc1)c1ccccn1 [NCGC00162100] | 59.8% | 23.3 µM | –
COc1ccc(CN2CCN([C@@H](c3ccccc3)c3ccc(Cl)cc3)CC2)c(OC)c1 [NCGC00346845] | 64.2% | 22.5 µM | CC50 (Huh7 cells): 24.6 µM
Cc1ccccc1[C@@H](OCCN(C)C)c1ccccc1 [NCGC00015771] | 25.1% | > 30 µM | –
CN1CCC(=C2c3ccccc3CCc3cccnc32)CC1 [NCGC00182705] | 45.5% | > 30 µM | –
CN(C)CCN(Cc1cccs1)c1ccccn1 [NCGC00015704] | – | > 30 µM | –
COc1ccc(CN(CCN(C)C)c2ncccn2)cc1 [NCGC00178145] | – | > 30 µM | –
C[C@@H]1CN(C2CCC(C#N)(c3ccc(F)cc3)CC2)CC[C@]1(C(=O)O)c1ccccc1.Cl (stereo partly shown) [NCGC00016939] | 37.9% | > 30 µM | –
Clc1ccc(C(c2ccc(Cl)cc2)N2CCOCC2)cc1 [NCGC00354586] | – | > 100 µM | CC50 (Huh7 cells): > 30 µM
Cc1cccc(CN2CCN([C@@H](c3ccccc3)c3ccc(Cl)cc3)CC2)c1 [NCGC00018296] | 54.8% | > 30 µM | –
CN1CCC(=C2c3ccccc3C=Cc3ccccc32)CC1 [NCGC00015252] | 52.7% | 12.3 µM | –
c1ccc2c(c1)Sc1ccccc1N2CC1CN2CCC1CC2 (stereo not shown) [NCGC00183046] | – | – | CC50 (HEK293A2T2 cells): > 30 µM; CC50 (Huh7 cells): 26.3 µM
NC1=NCC2c3ccccc3Cc3ccccc3N12 (stereo not shown) [NCGC00165791] | – | > 100 µM | –
Cc1ccc(/C(=C/CN2CCCC2)c2ccccn2)cc1 [NCGC00024714] | – | > 30 µM | –
CCc1ccc2c(c1)N(CC(C)CN(C)C)c1ccccc1S2.Cl (stereo not shown) [NCGC00014485] | 90.9% | 2.8 µM | –
CC(C)N1CCN([C@@H](c2ccccc2)c2ccc(Cl)cc2)CC1 [NCGC00347044] | 90.9% | 3.6 µM | –
OCCOCCN1CCN([C@@H](c2ccccc2)c2ccc(Cl)cc2)CC1 [NCGC00018255] | 26.3% | > 100 µM | CC50 (Huh7 cells): > 30 µM
CC(CN1c2ccccc2Sc2cccnc21)N(C)C (stereo not shown) [NCGC00181101] | – | > 30 µM | –
CCN1CCN(C2c3ccccc3-c3ccc(Br)cc32)CC1 (stereo not shown) [NCGC00351673] | 77.7% | 28.1 µM | CC50 (Huh7 cells): > 30 µM
CN(C)C(=O)COC(=O)Cc1ccc(OC(=O)c2ccc(NC(=N)N)cc2)cc1 [camostat] | – | – | time-of-addition result (SARS-CoV-2): only E64d, and not camostat, was effective in blocking the entry step
CN1CCN(C(c2ccc(Cl)cc2)c2ccc(Cl)cc2)CC1 [NCGC00351413] | 67.9% | 2.6 µM | CC50 (Huh7 cells): 12.9 µM
Cc1cccn2c(=O)c(-c3nnn[n-]3)cnc12.[K+] [NCGC00167434] | 24.2% | > 30 µM | –
CN1CCC(CN2c3ccccc3Sc3ccccc32)C1 (stereo not shown) [NCGC00014482] | – | – | CC50 (HEK293A2T2 cells): > 30 µM; CC50 (Huh7 cells): > 30 µM

Structure (SMILES) | Max % [1] | EC50 [1] | also measured
CC(C)c1ccc2oc3nc(N)c(C(=O)O)cc3c(=O)c2c1 [NCGC00167472] | 59.8% | – | –
CC(C)(C(=O)O)c1ccc([C@@H](O)CCCN2CCC(C(O)(c3ccccc3)c3ccccc3)CC2)cc1 [NCGC00015453] | – | > 30 µM | –
CN1CCCN([C@@H](c2ccccc2)c2ccc(Cl)cc2)CC1 [NCGC00018271] | – | – | CC50 (HEK293A2T2 cells): > 30 µM; CC50 (Huh7 cells): > 30 µM
Cc1ccc(C(=CCN2CCCC2)c2cccc(C=CC(=O)O)n2)cc1 [NCGC00182053] | – | > 30 µM | –
CN(C)CCOC(c1ccccc1)c1ccccc1 [NCGC00015335] | 17.9% | – | –
CN1CCCC(n2nc(Cc3ccc(Cl)cc3)c3ccccc3c2=O)CC1 (stereo not shown) [NCGC00177979] | 96.4% | 4.3 µM | –
CC(C)(C)c1ccc(C(=O)CCCN2CCC(OC(c3ccccc3)c3ccccc3)CC2)cc1 [NCGC00164603] | – | > 30 µM | –
CN1CCN(C(c2ccccc2)c2ccccc2)CC1 [NCGC00016421] | 58.1% | 25.2 µM | CC50 (Huh7 cells): > 30 µM
Cl.Cl.O=C(O)COCCN1CCN(C(c2ccccc2)c2ccc(Cl)cc2)CC1 (stereo not shown) [NCGC00016949] | 29.7% | > 30 µM | CC50 (Huh7 cells): > 30 µM
CCOC(=O)N1CCC(=C2c3ccc(Cl)cc3CCc3cccnc32)CC1 [NCGC00015619] | – | > 30 µM | –
COc1ccc(CCN2CCC(Nc3nc4ccccc4n3Cc3ccc(F)cc3)CC2)cc1 [NCGC00016913] | 79.3% | 8.4 µM | –
CN(C)CC/C=C1/c2ccccc2COc2ccc(CC(=O)O)cc21 [NCGC00263532] | – | > 30 µM | –
CN1CCC(N(c2ccccc2)c2ccccc2)CC1 [NCGC00351675] | 17.1% | > 100 µM | CC50 (Huh7 cells): > 30 µM
Clc1ccc(C(c2ccc(Cl)cc2)N2CCNCC2)cc1 [NCGC00354584] | 100.0% | 2 µM | –
COc1ccc(CN(CCN(C)C)c2ccccn2)cc1 [NCGC00015822] | 49.2% | > 30 µM | –
Cc1nc[nH]c1CN1CCN(C(=O)N[C@@H](CC(C)C)C(=O)O)[C@@H](Cc2ccccc2)C1=O [GGTI2418] | – | – | effect on viral replication (SARS-CoV-2-nLUC): no effect on viral replication
O=C(CCCN1CCN(c2ccc(F)cc2)CC1)NC1c2ccccc2CSc2ccccc21 (stereo not shown) [NCGC00183837] | – | > 30 µM | –
CN(C)CCCN1c2ccccc2Sc2ccc(Cl)cc21 [NCGC00015273] | – | > 30 µM | –
C(=C/c1ccccc1)/CN1CCN(C(c2ccccc2)c2ccccc2)CC1 [NCGC00015246] | 65.8% | > 30 µM | CC50 (Huh7 cells): 22 µM
Clc1ccc(C(c2ccccc2)N2CCNCC2)cc1 (stereo not shown) [NCGC00345879] | 100.0% | 3 µM | CC50 (Huh7 cells): 28 µM
Clc1ccc(Cn2c(CN3CCCC3)nc3ccccc32)cc1 [NCGC00015243] | – | > 30 µM | –
CN(C)CCCN1c2ccccc2Sc2ccccc21 [NCGC00015829] | – | – | CC50 (HEK293A2T2 cells): > 30 µM; CC50 (Huh7 cells): 18.4 µM

Structure (SMILES) | Max % [1] | EC50 [1] | also measured
CN1[C@@H]2CC[C@H]1CC(O[C@@H](c1ccccc1)c1ccc(Cl)cc1)C2 (stereo partly shown) [NCGC00015195] | 100.0% | 3.1 µM | –
CN1CCC[C@@H]1CCO[C@](C)(c1ccccc1)c1ccc(Cl)cc1 [NCGC00016710] | – | – | CC50 (HEK293A2T2 cells): > 30 µM; CC50 (Huh7 cells): > 30 µM
FC(F)(F)CN1CCN([C@@H](c2ccccc2)c2ccc(Cl)cc2)CC1 [NCGC00351281] | 21.1% | > 100 µM | CC50 (Huh7 cells): > 30 µM
CN1CCC(=C2c3ccccc3CC(=O)c3sccc32)CC1 [NCGC00015580] | – | > 30 µM | –
c1ccc2c(c1)Sc1ccccc1N2C[C@H]1CN2CCC1CC2 [NCGC00014679] | 100.0% | 1.5 µM | –
CN(C)CCN(Cc1ccc(Cl)cc1)c1ccccn1 [NCGC00016672] | 77.6% | 11.1 µM | –
C[C@@H](CN1c2ccccc2Sc2ccccc21)N(C)C [NCGC00015817] | 87.0% | 4.5 µM | –
OC(c1ccccc1)(c1ccccc1)C1CN2CCC1CC2 (stereo not shown) [NCGC00160492] | – | > 30 µM | –
CN(C)CCOC(c1ccc(Cl)cc1)c1ccccn1 (stereo not shown) [NCGC00166141] | 35.5% | 26.3 µM | –
CN1CCC(N(c2ccccc2)c2ccc(OC(C)(C)C)cc2)CC1 [NCGC00346851] | 68.3% | 14.9 µM | CC50 (Huh7 cells): > 30 µM
CN1CCN(C(c2ccccc2)c2ccc(Cl)cc2)CC1 (stereo not shown) [NCGC00179384] | – | – | CC50 (HEK293A2T2 cells): > 30 µM
CN(c1nccc(=O)[nH]1)C1CCN(c2nc3ccccc3n2Cc2ccc(F)cc2)CC1 [NCGC00181013] | – | > 30 µM | –
CC(=O)N1CCN([C@@H](c2ccccc2)c2ccc(Cl)cc2)CC1 [NCGC00347049] | – | > 100 µM | CC50 (Huh7 cells): > 30 µM
CN1CCC(OC(c2ccccc2)c2ccccc2)CC1 [NCGC00016395] | 51.1% | 5.2 µM | –
OC(CCCN1CCCCC1)(c1ccccc1)c1ccccc1 [NCGC00016624] | 57.9% | 12.8 µM | –
Clc1ccc([C@H](c2ccccc2)N2CCN(C3CCCCC3)CC2)cc1 [NCGC00347039] | 70.8% | 4 µM | CC50 (Huh7 cells): 14.1 µM
C[C@@H]1O[C@@]2(CS1)CN1CCC2CC1 [NCGC00485995] | – | 17.9 µM | –
CN(C)CC[C@H](c1ccc(Cl)cc1)c1ccccn1 [NCGC00015227] | – | > 30 µM | –
c1ccc(CN(CC2=NCCN2)c2ccccc2)cc1 [NCGC00016613] | – | > 30 µM | –
CC(CN(C)C)CN1c2ccccc2S(=O)(=O)c2ccccc21 (stereo not shown) [NCGC00182075] | – | > 30 µM | –
